Experimental data reported in US10472663B2, “Procedure for the rapid determination of bacterial susceptibility to antibiotics that inhibit protein synthesis” (ABM TECHNOLOGIES, LLC, priority 2015, dated 2019).
≈ marks a conversion by molar mass, not a printed value.

Tests used:
Enterococcus faecalis [1] = test: Variant Micromax assay of cell lysis by lysozyme after erythromycin (Example 6); assay type: cell-based; conditions: for lysed cells: erythromycin 0.5 μg/ml 75 min, lysozyme 1 mg/ml during last 10 min
Experimental: (§1) As an example, two strains of Enterococcus faecalis exponentially growing in Mueller-Hinton broth were incubated under four different conditions and then assayed. […] Each strain was subjected to four treatments for the purpose of rapidly distinguishing the susceptible and the resistant strain to erythromycin.
The dose was that indicated by the CLSI as the breakpoint of susceptibility to erythromycin in the standard antibiogram based on microdilution. Another portion of both strains was incubated with lysozyme 1 mg/ml, 10 min at 37° C. […]
After incubation with lysozyme, the cells were processed using a variant of the Micromax technology to visualize the nucleoids, i.e. spreading of the bacterial chromosomal DNA, in all the cells of the population. Samples from the cultures were immersed in an agarose microgel on a slide and incubated with a specific lysing solution to remove the cell wall in all the cells and release in the microgel the nucleoids contained inside the bacteria. These are dried, stained with a highly sensitive fluorochrome for DNA like SYBR Gold and visualized under fluorescence microscopy.

Enterococcus faecalis [2] = test: MIC, standard antibiogram based on microdilution; assay type: cell-based
Experimental: (§2) A quantitative method may rely on dilution in a series of broths or agar solutions having progressively lower concentrations of the antibiotic in question. The lowest concentration of antibiotic in which the bacteria cannot grow provides the minimum inhibitory concentration of that antibiotic to the tested strain of bacteria. This quantitative method may be routinely employed in the hospitals, usually using commercial panels of antibiotics and semi-automated systems of incubation and software for data interpretation like the MicroScan WalkAway™ (Siemens), Phoenix (Becton Dickinson), or Vitek™ 2 (bioMérieux). With such growth-dependent automated systems, results of susceptibility or resistance to antimicrobians from a specific microorganism may be obtained in around 6-9 hours.
as §1

S. pneumoniae [3] = test: Micromax assay of autolysis and DNA fragmentation induced by Triton-lysozyme-EDTA after azithromycin (Example 4); assay type: cell-based, Streptococcus pneumoniae; conditions: for cells lysed and with fragmented DNA: azithromycin 0.5 μg/ml 60 min followed by Triton-lysozyme-EDTA 5 min; for less fragmentation than incubation with Triton-lysozyme-EDTA alone: azithromycin 0.5 μg/ml 60 min followed by Triton-lysozyme-EDTA
Experimental: (§3) In an exemplification of this principal, two strains of S. pneumoniae growing in Mueller-Hinton II broth complemented with cations and 2-5% lysed horse blood, at 37° C. with 5% CO2, were assayed. […] The purpose of the assay was to distinguish rapidly the susceptible and the resistant (i.e. non-susceptible) strain to azithromycin.
Each of these two strains were subjected to four treatments. A first portion of both strains was incubated with azithromycin at a concentration of 0.5 μg/ml for 60 min. The dose was that indicated by the CLSI as the breakpoint of susceptibility to azithromycin in the standard antibiogram based on microdilution. Another portion of both strains was incubated with 0.05% Triton X-100, 2 mg/ml lysozyme, 25 mM EDTA, 5 min. Still another portion of each strain was incubated with azithromycin at 0.5 μg/ml for 60 min followed by 0.05% Triton X-100, 2 mg/ml lysozyme, 25 mM EDTA, 5 min, without removing the azithromycin. A final portion of each strain remained without any antibiotics.
After incubation cells were processed using the variant of the Micromax technology to visualize the nucleoids. In the same manner indicated previously, samples from cells from the culture are immersed in an agarose microgel on a slide and incubated with a specific lysing solution to remove the cell wall in all the cells and release in the microgel the nucleoids contained inside the bacteria. […] The microgels are dried, stained with a high sensitive fluorochrome for DNA like SYBR Gold and visualized under fluorescence microscopy.

H. influenzae = test: Cell enlargement by low-dose mitomycin C after azithromycin; assay type: cell-based, Haemophilus influenzae; conditions: azithromycin 4 μg/ml 30 min followed by mitomycin C 0.5 μg/ml 120 min; azithromycin-resistant strain
Experimental: In one exemplification, two strains of H. influenzae exponentially growing in Mueller-Hinton broth were incubated under four differing treatments and then assayed. One strain was susceptible and the other resistant to the macrolide azithromycin (an inhibitor of protein synthesis). For the purpose of rapidly distinguishing the susceptible and the resistant strain to azithromycin each strain was incubated under four sets of conditions.
A portion of each strain was incubated with azithromycin at 4 μg/ml for 150 minutes. The dose azithromycin corresponded to the dose indicated by the CLSI as the breakpoint of susceptibility to azithromycin in the standard antibiograms based on microdilution. Another portion of each strain was incubated with Mitomycin C at 0.5 μg/ml for 120 minutes. Still another portion was incubated with azithromycin at 4 μg/ml for 30 min followed by mitomycin C at 0.5 μg/ml for 120 min, without removing the azithromycin. A final portion of each strain was not incubated with any antibiotics.

S. pneumoniae [4] = test: MIC, standard antibiogram based on microdilution; assay type: cell-based; conditions: Streptococcus pneumoniae
Experimental: as §2, §3

Staphylococcus aureus = test: Micromax assay of DNA fragmentation by DNase released with lysostaphin after azithromycin (Example 3); assay type: cell-based; conditions: for DNA fragmentation of released nucleoids: azithromycin 2 μg/ml 120 min followed by lysostaphin 10 μg/ml 1 min
Experimental: In an exemplification of this principal, two strains of S. aureus growing in Mueller-Hinton agar with 5% sheep blood were assayed. One strain was susceptible to the macrolide azithromycin (an inhibitor of protein synthesis) (FIGS. 13-15) and the other strain was a clinical isolate resistant to azithromycin (FIGS. 16-18). The purpose was to rapidly distinguish susceptible and non-susceptible strains to azithromycin. Cultures were processed direct from standard growing agar plates 18-24 h and it was not necessary the cells being exponentially growing previously to the assay.
Each of these strain was subjected to four treatments. One portion of both strains was incubated with azithromycin at 2 μg/ml for 120 min; 2 μg/ml being indicated by the CLSI as the breakpoint of susceptibility to azithromycin. The cells were then lysed to release nucleoids and images of FIGS. 13 and 16 were generated. Another portion of each strain was incubated with lysostaphin at 10 μg/ml for 1 min. FIGS. 14 and 17 depict the nucleoids released in each strain for this treatment. Still another portion was incubated with Azithromycin at 2 μg/ml for 120 min followed by lysostaphin at 10 μg/ml for 1 min, without removing the azithromycin. The assays for these treatments can be seen at FIGS. 15 and 18. A final portion was left without either antibiotic.
After the incubation, the cells were processed using the variant of a Micromax technology to lyse cells with affected cell walls. As indicated previously, samples from cells from the culture are immersed in an agarose microgel on a slide and incubated with a specific lysing solution to remove the cell wall in those cells affected by lysostaphin and release in the microgel the nucleoids contained inside the bacteria. These are dried, stained with a highly sensitive fluorochrome for DNA like SYBR Gold and visualized under fluorescence microscopy.

[5] = erythromycin-susceptible strain
[6] = azithromycin-susceptible strain

Compound | lysed cells (Enterococcus faecalis [1]; erythromycin-resistant strain) [%] | lysed cells (Enterococcus faecalis [1]; [5]) [%] | response pattern in further Enterococcus strains (Enterococcus faecalis [1]; four more erythromycin-susceptible and thirteen more erythromycin-resistant strains) | MIC (Enterococcus faecalis [2]; erythromycin-resistant strain) [µg/mL] | MIC (Enterococcus faecalis [2]; [5]) [µg/mL] | cells lysed and with fragmented DNA (S. pneumoniae [3]; resistant strain) [%] | cells lysed and with fragmented DNA (S. pneumoniae [3]; susceptible strain) | less fragmentation than incubation with Triton-lysozyme-EDTA alone (S. pneumoniae [3]; resistant strain) [%] | less fragmentation than incubation with Triton-lysozyme-EDTA alone (S. pneumoniae [3]; susceptible strain) [%] | modification of the bacteria (S. pneumoniae [3]; azithromycin alone 0.5 μg/ml 60 min, both strains) | cell enlargement (H. influenzae) | MIC (S. pneumoniae [4]; azithromycin-resistant strain) [µg/mL] | MIC (S. pneumoniae [4]; [6]) [µg/mL] | DNA fragmentation of released nucleoids (Staphylococcus aureus; azithromycin-resistant clinical isolate) | DNA fragmentation of released nucleoids (Staphylococcus aureus; [6]) | modification of the appearance of the bacteria (Staphylococcus aureus; azithromycin alone 2 μg/ml 120 min, both strains)
CC[C@H]1OC(=O)[C@H](C)[C@@H](O[C@H]2C[C@@](C)(OC)[C@@H](O)[C@H](C)O2)[C@H](C)[C@@H](O[C@@H]2O[C@H](C)C[C@H](N(C)C)[C@H]2O)[C@](C)(O)C[C@@H](C)C(=O)[C@H](C)[C@@H](O)[C@]1(C)O [erythromycin] | 96.77 | 3.87 | a similar response pattern has been reproduced | > 128 | 0.125 (≈ 0.17 µM) |  |  |  |  |  |  |  |  |  |  | 
CC[C@H]1OC(=O)[C@H](C)[C@@H](O[C@H]2C[C@@](C)(OC)[C@@H](O)[C@H](C)O2)[C@H](C)[C@@H](O[C@@H]2O[C@H](C)C[C@H](N(C)C)[C@H]2O)[C@](C)(O)C[C@@H](C)CN(C)[C@H](C)[C@@H](O)[C@]1(C)O [azithromycin] |  |  |  |  |  | 86 | about 40% | 7 | 44 | did not result in modification of the bacteria | the bacteria appeared enlarged | > 32 | 0.25 (≈ 0.334 µM) | a large extend of DNA fragmentation | strongly reduced level of DNA fragmentation or even suppression of DNA fragmentation | did not result in modification of the appearance of the bacteria
